Where two headings read alike, the source gives them in different places. Values belong to the compound of their own block, whether it stands above or below them. Where a SMILES comes first, the peptide text is derived from it. The star is where a group is joined. CH2Cl = ClC*
Tests used:
GTVap [1] = biological target: T1, GTVap (Rattus norvegicus, UniProt P97629); assay: GTVap inhibition by protease and aminopeptidase inhibitors, leu-p-nitroanilide substrate, HDM extract; format: biochemical; settings: for IC50: HDM enzyme extract, inhibitor added 15 minutes prior to leu-p-nitroanilide substrate
T1 construct: the GTVaps were solubilized from GLUT4 vesicles, LDM, HDM, and PM using 0.1% Triton X-100; from tissue; host or cells: adipocytes of epididymal fat pads of Sprague-Dawley rats, HDM fraction (Triton X-100 extract)
T1 sequence (P97629 1-1025): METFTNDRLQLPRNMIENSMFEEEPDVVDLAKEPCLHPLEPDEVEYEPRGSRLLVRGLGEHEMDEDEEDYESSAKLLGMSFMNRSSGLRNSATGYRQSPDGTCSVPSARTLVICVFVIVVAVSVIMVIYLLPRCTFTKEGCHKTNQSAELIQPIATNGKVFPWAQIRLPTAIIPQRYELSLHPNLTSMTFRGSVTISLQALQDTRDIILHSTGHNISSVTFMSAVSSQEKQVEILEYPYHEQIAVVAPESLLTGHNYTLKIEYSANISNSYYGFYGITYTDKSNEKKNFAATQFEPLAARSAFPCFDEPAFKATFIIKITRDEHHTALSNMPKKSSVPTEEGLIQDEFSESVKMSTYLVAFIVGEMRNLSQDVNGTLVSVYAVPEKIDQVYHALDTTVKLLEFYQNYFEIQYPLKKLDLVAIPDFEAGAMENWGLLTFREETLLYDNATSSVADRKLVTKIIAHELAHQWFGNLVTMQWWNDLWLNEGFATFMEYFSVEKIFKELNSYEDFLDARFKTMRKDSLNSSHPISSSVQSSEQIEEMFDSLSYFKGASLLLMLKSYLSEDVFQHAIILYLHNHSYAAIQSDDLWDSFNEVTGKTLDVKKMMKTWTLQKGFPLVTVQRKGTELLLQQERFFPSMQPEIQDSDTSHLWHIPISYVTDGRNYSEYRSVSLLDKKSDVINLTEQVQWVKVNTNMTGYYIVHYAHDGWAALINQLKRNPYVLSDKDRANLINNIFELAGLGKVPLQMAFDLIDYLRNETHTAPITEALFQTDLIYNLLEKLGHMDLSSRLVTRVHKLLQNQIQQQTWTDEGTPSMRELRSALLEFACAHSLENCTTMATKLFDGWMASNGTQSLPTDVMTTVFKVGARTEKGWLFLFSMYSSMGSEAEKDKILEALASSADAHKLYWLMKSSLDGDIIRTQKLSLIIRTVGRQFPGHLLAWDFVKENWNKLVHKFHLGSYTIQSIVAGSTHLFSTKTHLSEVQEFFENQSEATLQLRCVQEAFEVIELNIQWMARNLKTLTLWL

GTVap [2] = biological target: T1, GTVap; assay: Ion stabilization of GTVap activity over time at 4° C.; format: biochemical; settings: HDM extract in 20 mM Tris-HCl pH 7.5 at 4° C.
GTVap [3] = biological target: T1, GTVap; assay: Effect of ions on GTVap activity, Triton X-100 extracts of HDM; format: biochemical
GLUT4 vesicle GTVap = biological target: T2, GLUT4 vesicle GTVap (Rattus norvegicus, UniProt P97629); assay: Relative activity of GLUT4 vesicle GTVap with amino acid β-napthylamide substrates; format: biochemical; settings: GLUT4 vesicle extract; substrate 200 uM
T2 construct: a GLUT4 vesicle extract was prepared as described above and incubated with each substrate; from tissue; host or cells: GLUT4 vesicles immunopurified from the LDM fraction of rat epididymal adipocytes
T2 sequence (P97629 1-1025): T1 sequence (P97629 1-1025)
Experimental: Unless otherwise indicated, the GTVaps were solubilized from GLUT4 vesicles, LDM, HDM, and PM using 0.1% Triton X-100 in 20 mM Tris, pH 7.5 at 4° C. for 15 minutes. The insoluble material was pelleted at 20,000×g for 20 minutes and discarded. […] The results are reported as pmoles p-nitroanilide produced per μg protein/hour at 37° C. unless otherwise noted.
To characterize the relative reactivities of GTVap to different amino acid β-napthylamide substrates, a GLUT4 vesicle extract was prepared as described above and incubated with each substrate at a concentration of 200 uM as described above.

GTVap [4] = biological target: T1, GTVap; assay: Relative activity of GTVap with amino acid p-nitroanilide substrates, HDM extract; format: biochemical; settings: substrate 1.6 mM, 37° C.
Experimental: The […] can be maximally extracted (>95%) from the LDM, HDM, and PM membranous compartments using low concentrations of detergents. Unless otherwise indicated, the […] were solubilized from GLUT4 vesicles, LDM, HDM, and PM using 0.1% Triton X-100 in 20 mM Tris, pH 7.5 at 4° C. for 15 minutes. The insoluble material was pelleted at 20,000×g for 20 minutes and discarded. […] The UV absorbance of the p-nitroanilide product was measured at 405 nm and quantified by comparison to p-nitroanilide standards. The results are reported as pmoles p-nitroanilide produced per μg protein/hour at 37° C. unless otherwise noted. Alternatively, the results are presented as change in OD at 405 nm if the protein was too low to determine (eg column fractions) or a relative comparison was being made. […] To characterize the relative reactivities of GTVap to different amino acid p-nitroanilide substrates, an HDM extract was prepared as described above and incubated with each substrate at a concentration of 1.6 mM as described above.

GTVap [5] = biological target: T1, GTVap; assay: GTVap cleavage of insulin by HDM, mass spectrometry; format: biochemical; settings: HDM 1.8 mg/ml, 120 μg/ml porcine insulin, 37° C., pH 7.5
Experimental: HDM (1.8 mg/ml) was incubated at 37° C. with 120 μg/ml porcine insulin in 50 mM sodium borate, pH 7.5, containing the following protease inhibitors that were previously shown to have no inhibitory effect on GTVap: 2 mM benzamidine, 2 μM leupeptin, 1 μM pepstatin, 1 mM DFP, and 150 μM PMSF. The reaction was terminated after various incubation times by centrifugation of aliquots at 200,000×g to remove the HDM. The insulin products were detected by mass spectrometry or were first chromatographed on a 2.1×15 cm Beckman Spherisorb C18 column at 0.25 ml/min. in a 4 hour linear gradient of 27% to 31% acetonitrile in 1% TFA adjusted to pH 3.0 with TEA, prior to mass spectroscopic analysis.

GTVap [6] = assay: Insulin-stimulated translocation of GTVap to the plasma membrane in rat adipocytes; format: cell-based; settings: insulin 10 nM, 20 minutes at 37° C.
Experimental: Epididymal fat pads from 125 g Sprague-Dawley rats were removed and immediately placed in KRBH buffer containing 1% BSA, 2.5 mM glucose and 200 nM adenosine. The fat was minced, collagenase was added to 3 mg/ml, and the mixture was incubated at 37° C. for 45 minutes with shaking. The dissociated adipocytes were filtered through a 250 micron nylon screen and washed 3 times (using mild centrifugation) with KRBH containing 1% BSA and 200 nM adenosine. The cells were resuspended in the wash buffer containing 3% BSA.
The membrane fractions PM, HDM and LDM were prepared generally according to Simpson et. al., Biochimica et Biophysica Acta, 763, 393-407 (1983). Isolated adipocytes were homogenized in a chilled Wheaton 55 ml teflon pestle homogenizer for ten strokes. The fat layer was removed following a 10,000×g centrifugation and the remaining material was rehomogenized. The PM fraction was pelleted at 16,000×g and the supernatant was recentrifuged to remove any additional PM. […]
GLUT4 is known to translocate from an intracellular vesicular compartment to the plasma membrane upon insulin stimulation. […] The insulin stimulated and control adipocytes were fractionated into the subcellular compartments and analyzed for GTVap enzyme and protein (Western blot) as previously described.

[7] = biological target: GTVap (Glucose Transporter Vesicle aminopeptidase) as present in rat adipocyte HDM and HDM extracts (rat); assay: batch adsorption of solubilised HDM extract on wheat germ lectin-Sepharose
[8] = incubated 15 minutes at 37° C. before leu-p-nitroanilide

- IC50 (GTVap [1]): 1 mM
Compound: CC(C)C[C@H](NC(=O)[C@@H](N)CC(C)C)C(=O)N[C@@H](Cc1ccccc1)C(=O)CCl [Leu-Leu-Phe-chloromethyl ketone] (H-Leu-Leu-Phe-CH2Cl)

- stabilization of GTVap activity against time dependent inactivation (GTVap [2]): do not stabilize the enzyme
Compound: [Zn+2] [Zinc]
- effect of ion on GTVap enzyme activity (GTVap [3]; [8]): optimally activate at μmolar concentrations and inhibit at mmolar concentrations

- IC50 (GTVap [1]): > 1 mM
Compound: CCCCC[C@H](CC(=O)NO)C(=O)N[C@H](C(=O)N1CCC[C@H]1CO)C(C)C [actinonin, Actinonin]

- stabilization of GTVap activity against time dependent inactivation (GTVap [2]): do not stabilize the enzyme
Compound: [Co+2] [cobalt]
- effect of ion on GTVap enzyme activity (GTVap [3]; [8]): optimally activate at μmolar concentrations and inhibit at mmolar concentrations

- activity of GTVap with amino acid-p-nitroanilide substrate (GTVap [4]): 0.08 nmoles/μg protein/hr
Compound: NCC(=O)Nc1ccc([N+](=O)[O-])cc1 [glycine p-nitroanilide]

- IC50 (GTVap [1]): 0.002 mM
Compound: CC(C)C[C@H](N)CS [leuthiol, L-leucinethiol]

- stabilization of GTVap activity against time dependent inactivation (GTVap [2]): do not stabilize the enzyme
Compound: [Mn+2] [manganese]
- effect of ion on GTVap enzyme activity (GTVap [3]; [8]): optimally activate at μmolar concentrations and inhibit at mmolar concentrations

- activity of GLUT4 vesicle GTVap with amino acid-β-napthylamide substrate (GLUT4 vesicle GTVap): 2.9 nmoles/25 uL extract/hr
Compound: CSCCC(N)C(=O)Nc1ccc2ccccc2c1 (stereo not drawn) [methionine β-napthylamide]

- inhibition of GTVap activity (GTVap [1]; at >0.2 mM, relative to inhibitor-free control): > 98%
Compound: c1cnc2c(c1)ccc1cccnc12 [phenanthroline]

- activity of GLUT4 vesicle GTVap with amino acid-β-napthylamide substrate (GLUT4 vesicle GTVap): 0.9 nmoles/25 uL extract/hr
Compound: NC(Cc1ccccc1)C(=O)Nc1ccc2ccccc2c1 (stereo not drawn) [phenylalanine β-napthylamide]

- effect of ion on GTVap enzyme activity (GTVap [3]; between 1 μM and 10 mM): no effect
Compound: [K+] [potassium]

- activity of GTVap with amino acid-p-nitroanilide substrate (GTVap [4]): 0.35 nmoles/μg protein/hr
Compound: O=C(Nc1ccc([N+](=O)[O-])cc1)[C@@H]1CCCN1 [proline p-nitroanilide]

- activity of GTVap with amino acid-p-nitroanilide substrate (GTVap [4]): 0.09 nmoles/μg protein/hr
Compound: CC(C)[C@H](N)C(=O)Nc1ccc([N+](=O)[O-])cc1 [valine p-nitroanilide]

- percent of total aminopeptidase activity bound [7]: 93%
Compound: wheat germ lectin-Sepharose 6 MB (tool reagent)

More lines, now with the values behind:

Compound: O[C@H](CS)[C@H](O)CS (racemic) [Dithiothreitol]
- activation at 200 µM (GTVap [1]; at 0.2 mM, read-out: increase of enzyme activity): 20%
- inhibition at 5000 µM (GTVap [1]; at 5 mM): 30%

Compound: [Ca] [Calcium]
- stabilization of GTVap activity against time dependent inactivation (GTVap [2]): stabilizes the enzyme activity
- effect of ion on GTVap enzyme activity (GTVap [3]; [8]): partially activate, but at high μmolar to mmolar ion concentrations

Compound: O=S(=O)(F)Cc1ccccc1 [PMSF, phenylmethylsulfonyl fluoride]
- effect on GTVap activity (GTVap [1]): no effect

Compound: N=C(N)NCCCC(N)C(=O)Nc1ccc2ccccc2c1 (stereo not drawn) [arginine β-napthylamide]
- activity of GLUT4 vesicle GTVap with amino acid-β-napthylamide substrate (GLUT4 vesicle GTVap): 6.5 nmoles/25 uL extract/hr

Compound: N=C(N)c1ccccc1 [benzamidine, Benzamidine]
- effect on GTVap activity (GTVap [1]): no effect

Compound: c1ccc(-c2ccccn2)nc1 [dipyridyl]
- inhibition of GTVap activity (GTVap [1]): > 98%

Compound: CC(=O)N[C@@H](CC(C)C)C(=O)N[C@@H](CC(C)C)C(=O)N[C@H](C=O)CCCNC(=N)N [leupeptin, Leupeptin]
- effect on GTVap activity (GTVap [1]): no effect

Compound: [Mg] [magnesium]
- effect of ion on GTVap enzyme activity (GTVap [3]; [8]): partially activate, but at high μmolar to mmolar ion concentrations

Compound: insulin: Insulin (porcine) obtained from Eli Lilly
- cleavage of insulin by GTVap (mass spectroscopic analysis) (GTVap [5]): N-terminal residues phenylalanine and valine of the B-subunit of insulin were removed sequentially
- GTVap translocation (Western blot reactivity) (GTVap [6]): translocates to the plasma membrane
- increase of GTVap enzyme activity in the plasma membrane (GTVap [6]): 29%

Compound: lithium
- effect of ion on GTVap enzyme activity (GTVap [3]; between 1 μM and 10 mM): no effect
